# Results: patent US5593678A, “Protection of teleost fish” (University of Georgia Research Foundation, priority 1994, dated 1997)
# Where two headings read alike, the source gives them in different places.
# Tests used:
# [1] = tested on: NCC (lysis of IM-9 target cells); details: for effect of removal of inhibitor on NCC activation (words): 90 minutes treatment, washed, E:T 40:1; for enhancement of destruction of IM-9 target cells (fold): over control, lower E:T ratios
# Procedure: FIG. 4. Individual and combined effects of phosphatase inhibitors on NCC cytotoxicity, NCC (7×10^5 cells) were incubated with either media (.diamond.), vanadate (Δ) (5 mM). NaF (.smallcircle.) (20 mM), or both vanadate and NaF (.quadrature.) for the indicated time periods before addition to labeled IM-9 target cells.
# FIG. 5. Effects of removal of Na3 VO4 on NCC activation. NCC were harvested, incubated for three hours, washed, counted and added to duplicate tubes containing either media alone or media containing 2.5, 5 and 10 mM vanadate. Following a 90 minutes incubation time, the cells were either washed and resuspended in media (closed circles) or added directly (open circles) to wells containing ^51 chromium labeled IM-9 target cells (E:T ratio 40:1).
# FIG. 6. Effects of removal of NaF on NCC activation. NCC were harvested, incubated for three hours in media, washed, counted and added to duplicate tubes containing media alone or in the presence of 5, 10 and 20 mM NaF. Following a 90 minutes treatment time, NCC were either washed (closed circles) or added directly (open circles) to wells containing labeled IM-9 target cells (E:t ratio 40:1).
# FIG. 7. Effects of Na3 VO4 on NCC with different levels of cytotoxicity. NCC were harvested from anterior kidneys of fish from three different sources. The cells were incubated in media for three hours, washed, counted and added to test tubes containing either media alone or media with 2.5, 5 and 10 mM vanadate. Following a two hours incubation time, the effectors were added to wells containing labeled IM-9 cells at a 40:1 E:T ratio.
# FIG. 8. Effects of NaF on NCC with different levels of cytotoxicity. NCC were harvested from anterior kidneys of fish from three different sources. The cells were incubated in media for three hours, washed, counted and added to media or media with 5, 10 and 20 mM NaF. Following a two-hour incubation, NCC were added to wells containing ^51 chromium labeled IM-9 target cells for a final E:T ratio of 40:1.
# (§1) A ^51 Cr release assay was used to determine cytotoxicity. Target cells at 1-2×10^6 cells/ml were labeled with 100 μCi of sodium chromate (Amersham, Arlington Heights, Ill.). NCC effector cells were treated as previously described [Evans et al. (1988) supra], centrifuged (500 g), and resuspended in media and added at different E:T ratios to the labeled target cells in round-bottomed 96-well microtiter plates. This mixture was incubated (25° C.) for 4-6 hours and 100 μl of each supernatant was removed to determine radioactivity (Beckman Biogamma II Counter; Beckman Instruments, Irvine, Calif.). The results are expressed as either percentage specific release (SR)=[(test release--spontaneous release)/(total release--spontaneous release)]×100; percent inhibition=[(percentage control SR--percentage test SR)/percentage control SR]×100; and percentage increase=(percentage test SR--percentage control SR)/percentage control SR.
# NCC were obtained as previously described [Graves et al. (1984) supra]; Evans et al. (1984) supra]. […] NCC were then washed and resuspended at 20×10^6 cells/ml, and 35 μl aliquots were added to test tubes containing 315 μl media only (media control) or media containing the indicated treatments. After 2 hr incubation, the cells were mixed with ^51 Cr-labeled IM-9 target cells and incubated for 4-6 hours ([…]). Supernatants were harvested and cytotoxicity levels were calculated as previously described.
# Membrane phosphorylation is maintained through a delicate equilibrium between cellular kinase and phosphatase activities.
# In further studies, NCC were treated with different concentrations of protein phosphatase inhibitors for two hours and labeled IM-9 target cells were added for a four-hour microcytotoxicity assay (Table 8).
# [2] = tested on: NCC from stressed fish (lysis of IM-9 target cells); details: 100:1, control 0.9
# Procedure: as §1
# A common observation in fish exposed to stress, e.g., toxicants, drastic temperature changes, handling, etc., is the temporary loss of NCC activity.
# [3] = tested on: NCC (lysis of IM-9 target cells); details: 0.05 mM (50 μM), immersion, 10, 24, 48 hours
# Procedure: FIG. 9. In vivo NCC responses to vanadate treatment. Catfish were acclimated in 10 gal tanks for 24 hours prior to treatment. Vanadate was added directly to the tanks and cytotoxicity assays of NCC from treated and control fish were conducted at 10, 24 and 48 hours post-treatment.
# Fish were treated by immersion in 10 gal (static flow) tanks containing the appropriate inhibitor concentrations in 15 liters of dechlorinated water (19°-20° C.). All fish were acclimated to tank conditions 24 hours prior to treatment. Each tank housed twenty fish (approximately 4-5 inches in length). At 24 hour intervals 50% of the water was changed.
# To determine the ability of vanadate to act in vivo to activate NCC responses, fish were treated by immersion with 0.050 mM vanadate and cytotoxicity was determined at 10, 24 and 48 hours post-treatment.
# Edwardsiella ictaluri [4] = tested on: Edwardsiella ictaluri
# Procedure: FIG. 11. Effects of treatment of catfish with vanadate prior to infection with E. ictaluri. In two different experiments (A and B), catfish were treated with vanadate (indicated concentrations) 48 hours prior to infection with Edwardsiella. Percent cumulative mortality for each treatment group is given. Numbers of fish were 12-15/group/experiment.
# Thus, catfish were treated (by immersion) with 0.05 mM vanadate for 48 hours prior to infection with Edwardsiella ictaluri.
# [5] = tested on: NCC in anterior kidney tissue; details: for % NCC in anterior kidney tissue / Total cells/ml: 50 μM
# Edwardsiella ictaluri [6] = details: approximately 10 μM to approximately 25 μM, 18-24 hours; FIG. 10; listed as sodium orthovanadate
# Na^+ /K^+ ATPase = details: cited from earlier work
# protein phosphatase = details: cited from earlier work
# [7] = tested on: human prostate gland phosphotyrosyl protein phosphatase; details: cited from earlier work
# calcineurin = details: cited from earlier work
# diabetic animals = details: cited from earlier work
# [8] = tested on: cellular carbohydrate biosynthetic pathways; details: cited from earlier work
# [9] = tested on: muscles and liver; cardiac performance; details: rats; cited from earlier work
substance,measurement,setting,value
sodium orthovanadate,Percent Specific Release,"[1]; 5 mM, E:T 10, media 39",63%
same,Percent Specific Release,"[1]; 5 mM, E:T 25, media 4",29%
same,Percent Specific Release,"[1]; 5 mM, E:T 50, media 21",46%
same,Percent Specific Release,"[1]; 10 mM, E:T 10, media 39",62%
same,Percent Specific Release,"[1]; 10 mM, E:T 25, media 4",40%
same,Percent Specific Release,"[1]; 10 mM, E:T 50, media 21",49%
same,effect of removal of inhibitor on NCC activation (words),[1],slightly reduced levels of NCC cytotoxicity
same,effect of removal of inhibitor on NCC activation (words),[1]; listed as sodium vanadate,largely retained
same,enhancement of destruction of IM-9 target cells (fold),[1]; listed as Sodium vanadate,approximately six- to eightfold
same,enhancement of destruction of IM-9 target cells (fold),[1]; listed as sodium vanadate,as much as six- to eightfold
same,Percent Specific Release (stressed fish),[2]; Na3 VO4 5.0 mM,9.9%
same,Percent Specific Release (stressed fish),[2]; Na3 VO4 10.0 mM,13.1%
same,in vivo NCC cytotoxicity (words),[3]; listed as orthovanadate,significantly increased cytotoxicity 48 hours post-treatment
same,in vivo NCC cytotoxicity (words),[3]; listed as vanadate,large increases in cytotoxicity by 48 hours
same,reduction in mortality,"Edwardsiella ictaluri [4]; 0.05 mM pretreatment 48 hours, FIG. 11A",27%
same,reduced mortality,"Edwardsiella ictaluri [4]; 0.05 mM pretreatment, 13-14 days post infection, FIG. 11B",54%
same,mortality / resistance after pretreatment (words),"Edwardsiella ictaluri [4]; 0.05 mM, 48 hours prior to infection, listed as sodium orthovanadate",produced resistance in catfish against the Edwardsiella pathogen
same,survival at 28 days post-infection,Edwardsiella ictaluri [4]; experiment B,all treated catfish were still alive
same,% NCC in anterior kidney tissue,"[5]; 3 hours post-treatment, control 60",51%
same,Total cells/ml,"[5]; 3 hours, control 3.2",3.1 cells/ml × 10^0
same,Total cells/ml,"[5]; 24 hours, control 2.6",2.8 cells/ml × 10^0
same,% NCC in anterior kidney tissue,"[5]; 24 hours, control 55",60%
same,Total cells/ml,"[5]; 48 hours, control 2.1",3.5 cells/ml × 10^0
same,% NCC in anterior kidney tissue,"[5]; 48 hours, control 52",66%
same,Total cells/ml,"[5]; 72 hours, control 2.3",3.1 cells/ml × 10^0
same,% NCC in anterior kidney tissue,"[5]; 72 hours, control 70",72%
same,Total cells/ml,"[5]; 96 hours, control 3.6",1.6 cells/ml × 10^0
same,% NCC in anterior kidney tissue,"[5]; 96 hours, control 61",78%
same,effect on total number of cells and percentage NCC in anterior kidney tissue,[5]; in vivo,not due to fluctuations in the total number of cells nor in the percentage of NCC
same,mortality of infected catfish (words),Edwardsiella ictaluri [6],mortality was reduced
same,Na^+ /K^+ ATPase inhibition,Na^+ /K^+ ATPase,significantly inhibited
same,protein phosphatase activity,protein phosphatase,vanadate but not fluoride inhibited protein phosphatase activity
same,human prostate gland phosphotyrosyl protein phosphatase,[7],"fluoride, but not vanadate inhibited human prostate gland phosphotyrosyl protein phosphatase"
same,calcineurin-mediated dephosphorylation,calcineurin,"fluoride, but not vanadate inhibited"
same,blood glucose levels in diabetic animals,"diabetic animals; oral, 15 μM in drinking water",normalization of blood glucose levels in diabetic animals
same,time to reversal of effects after suspension of treatment,diabetic animals; rats,two
same,glucose oxidation,[8],stimulation of glucose oxidation
same,glycogen synthetase activity,[8],stimulation of glycogen synthetase activity
same,insulin activity,[8],prolongation of insulin activity
same,insulin binding,[8],augmentation of insulin binding
same,cardiac performance,[9],improved cardiac performance
same,glucose transport into muscles and liver,[9],stimulated glucose transport into muscles and liver
